ChEMBL document CHEMBL5036301, “Heteroaryl ether analogues of an antileishmanial 7-substituted 2-nitroimidazooxazine lead afford attenuated hERG risk: In vitro and in vivo appraisal” (Eur J Med Chem, 2021)
Values after ≈ are worked out from the molar mass of the structure shown.

Columns and labels:
[1] = system: Mycobacterium tuberculosis; assay: Antitubercular activity against Mycobacterium tuberculosis H37Rv assessed as reduction in microbial growth under anaerobic condition by luminescence analysis; assay type: functional
Trypanosoma cruzi = assay: Antitrypanosomal activity against Trypanosoma cruzi Tulahuen CL2 infected in human MRC-5 cells assessed as parasite growth; assay type: functional, organism-based; conditions: Tulahuen CL2, MRC5
[2] = system: Mycobacterium tuberculosis; assay: Antitubercular activity against Mycobacterium tuberculosis H37Rv assessed as reduction in microbial growth under aerobic condition by luminescence analysis; assay type: functional
Leishmania donovani [3] = assay: Antileishmanial activity against Leishmania donovani amastigotes infected in mouse J774A.1 cells incubated for 72 hrs by luciferase assay; assay type: functional, organism-based; conditions: J774.A1, 72 h
Leishmania infantum = assay: Antileishmanial activity against Leishmania infantum MHOM/MA(BE)/67 amastigotes infected in macrophages assessed as reduction in parasite burden by giemsa staining based microscopic analysis; assay type: functional, organism-based
MRC5 = assay: Cytotoxicity against human MRC5 cells assessed as cell viability after 72 hrs by fluorimetric analysis; assay type: ADME, cell-based; conditions: MRC5, 72 h
[4] = Selectivity index, ratio IC50 for cytotoxicity against human MRC5 cells to IC50 for antileishmanial activity against Leishmania infantum MHOM/MA(BE)/67 amastigotes infected in macrophages
hERG (KCNH2) = hERG (KCNH2) (Homo sapiens, UniProt Q12809); assay: Inhibition of human ERG expressed in HEK293 cells at 10 uM relative to control; assay type: cell-based; conditions: HEK293 cells expressing human ERG
Chain of hERG (KCNH2) (Q12809 whole entry): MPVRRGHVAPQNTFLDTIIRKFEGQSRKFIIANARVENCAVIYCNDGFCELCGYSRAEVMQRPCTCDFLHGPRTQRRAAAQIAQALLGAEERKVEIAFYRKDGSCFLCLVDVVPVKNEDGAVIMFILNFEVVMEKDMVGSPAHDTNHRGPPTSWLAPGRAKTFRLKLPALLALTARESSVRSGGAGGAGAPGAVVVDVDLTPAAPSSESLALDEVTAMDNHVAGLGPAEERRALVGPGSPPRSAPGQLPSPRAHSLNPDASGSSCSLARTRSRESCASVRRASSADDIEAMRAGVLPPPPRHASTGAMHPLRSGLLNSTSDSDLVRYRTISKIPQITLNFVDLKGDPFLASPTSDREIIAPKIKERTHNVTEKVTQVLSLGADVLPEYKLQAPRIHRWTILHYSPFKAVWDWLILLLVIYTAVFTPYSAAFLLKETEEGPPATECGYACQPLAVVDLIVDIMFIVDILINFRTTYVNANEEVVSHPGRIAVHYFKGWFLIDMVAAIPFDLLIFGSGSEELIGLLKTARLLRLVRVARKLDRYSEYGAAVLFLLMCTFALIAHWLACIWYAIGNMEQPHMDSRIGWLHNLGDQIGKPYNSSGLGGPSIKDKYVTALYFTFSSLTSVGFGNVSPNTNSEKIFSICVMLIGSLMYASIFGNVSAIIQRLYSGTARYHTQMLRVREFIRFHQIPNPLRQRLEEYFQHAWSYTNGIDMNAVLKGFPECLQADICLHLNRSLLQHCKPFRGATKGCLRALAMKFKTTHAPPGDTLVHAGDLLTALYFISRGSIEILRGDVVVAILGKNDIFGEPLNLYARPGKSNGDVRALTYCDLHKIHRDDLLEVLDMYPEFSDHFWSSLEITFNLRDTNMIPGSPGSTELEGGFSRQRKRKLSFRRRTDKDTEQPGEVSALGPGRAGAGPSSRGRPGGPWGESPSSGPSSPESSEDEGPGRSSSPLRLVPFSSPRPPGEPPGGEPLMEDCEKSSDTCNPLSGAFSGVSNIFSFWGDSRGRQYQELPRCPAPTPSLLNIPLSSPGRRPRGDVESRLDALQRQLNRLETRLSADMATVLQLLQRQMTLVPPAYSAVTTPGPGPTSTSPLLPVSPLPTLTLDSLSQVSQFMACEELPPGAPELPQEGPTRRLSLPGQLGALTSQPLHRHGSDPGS

[5] = Kinetic solubility of compound in water at pH7 by HPLC analysis; conditions: pH 7
[6] = Stability of compound in CD-1 mouse liver microsomes assessed as percentage of parent compound remaining at 1 uM measured after 1 hr
[7] = Stability of compound in hamster liver microsomes assessed as percentage of parent compound remaining at 1 uM measured after 1 hr; conditions: chinese hamster
Leishmania donovani [8] = assay: Antileishmanial activity against Leishmania donovani amastigotes infected in BALB/C mouse assessed as reduction in parasite burden in liver tissue at 50 mg/kg, po administered once per day for 5 days relative to control; assay type: functional; conditions: 120 h, time 5 day
[9] = Stability of compound in human liver microsomes assessed as percentage of parent compound remaining at 1 uM measured after 1 hr
[10] = Clearance in mouse at 1 mg/kg, iv measured upto 24 hrs LC-MS/MS analysis; conditions: in vivo
[11] = Initial plasma concentration in mouse at 1 mg/kg, iv measured upto 24 hrs LC-MS/MS analysis
[12] = AUClast in mouse at 25 mg/kg, po measured upto 24 hrs LC-MS/MS analysis; conditions: in vivo
in vivo [13] = conditions: mouse, po, 25 mg/kg
in vivo [14] = conditions: mouse, po, 25 mg/kg; remark: listed apart in the source
in vivo [15] = conditions: mouse, po, 25 mg/kg; remark: listed apart in the source
[16] = Half life in mouse at 1 mg/kg, iv measured upto 24 hrs LC-MS/MS analysis; conditions: in vivo
[17] = Volume of distribution at steady state in mouse at 1 mg/kg, iv measured upto 24 hrs LC-MS/MS analysis; conditions: in vivo
[18] = AUClast in mouse at 1 mg/kg, iv measured upto 24 hrs LC-MS/MS analysis; conditions: in vivo
[19] = Kinetic solubility of compound in 0.1 M Hcl at pH1 by HPLC analysis; assay type: physicochemical; conditions: pH 1, read-out: Kinetic_solubility

SMILES	MIC [1]	IC50 (Trypanosoma cruzi)	MIC [2]	IC50 (Leishmania donovani [3])	IC50 (Leishmania infantum)	IC50 (MRC5)	selectivity ratio [4]	solubility kinetic [5]	inhibition in vivo at 50 mg/kg (Leishmania donovani [8])	also measured
O=[N+]([O-])c1cn2c(n1)OC(COc1ccc(OC(F)(F)F)cc1)CC2 (configuration not stated)	4.7 µM	61 nM	5.2 µM	40 nM						
CC1(COc2ccc(Cl)cc2)CCn2cc([N+](=O)[O-])nc2O1 (configuration not stated)	7 µM	180 nM	0.86 µM	50 nM	130 nM	> 64000 nM	> 492			
CC1(COc2ccc(F)cc2)CCn2cc([N+](=O)[O-])nc2O1 (configuration not stated)	5 µM	450 nM	1.3 µM	290 nM	450 nM	> 64000 nM	> 142			
O=[N+]([O-])c1cn2c(n1)OC(COc1ccc(Cl)cn1)CC2 (configuration not stated)		940 nM		100 nM	> 64000 nM	> 64000 nM		18 µg/mL (≈ 57.9 µM)		inhibition at 10 µM (hERG (KCNH2)): 17%
CC1(COc2cnc(C(F)(F)F)cn2)CCn2cc([N+](=O)[O-])nc2O1 (configuration not stated)		940 nM			2200 nM	> 64000 nM	> 29	17 µg/mL (≈ 47.3 µM)	17%	remaining at 1 h, 1 µM [6]: 90%; remaining at 1 h, 1 µM [7]: 36%; remaining at 1 h, 1 µM [9]: 91%
CC1(COc2ncc(C(F)(F)F)cc2Cl)CCn2cc([N+](=O)[O-])nc2O1 (configuration not stated)		290 nM			260 nM	> 64000 nM	> 246	11 µg/mL (≈ 28 µM)	0%	remaining at 1 h, 1 µM [6]: 14%; remaining at 1 h, 1 µM [7]: 0%; remaining at 1 h, 1 µM [9]: 23%
CC1(COc2ccc(C(F)(F)F)nn2)CCn2cc([N+](=O)[O-])nc2O1 (configuration not stated)		3800 nM			> 64000 nM	> 64000 nM		10 µg/mL (≈ 27.8 µM)	0%	remaining at 1 h, 1 µM [6]: 89%; remaining at 1 h, 1 µM [7]: 58%; remaining at 1 h, 1 µM [9]: 90%
CC1(COc2ncc(F)cn2)CCn2cc([N+](=O)[O-])nc2O1 (configuration not stated)		14000 nM		670 nM	> 64000 nM	> 64000 nM				
O=[N+]([O-])c1cn2c(n1)OC(COc1cccc(C(F)(F)F)n1)CC2 (configuration not stated)		530 nM			> 64000 nM	> 64000 nM				
CC1(COc2ccc(Cl)cn2)CCn2cc([N+](=O)[O-])nc2O1 (configuration not stated)	8.7 µM	630 nM	2 µM	150 nM	380 nM	> 64000 nM		23 µg/mL (≈ 70.8 µM)	14%	clearance at 24 h [10]: 8.3 mL/min/kg; C0 at 24 h [11]: 2600 ng/mL; AUC(0-t) at 24 h [12]: 57800 ng·h/mL; bioavailability at 24 h (in vivo [13]): 100%; Tmax at 24 h (in vivo [14]): 1 h; Cmax at 24 h (in vivo [15]): 11000 ng/mL; half-life at 24 h [16]: 0.65 h; Vd at 24 h [17]: 0.5 L/kg; AUC(0-t) at 24 h [18]: 2010 ng·h/mL
CC1(COc2ccc(C(F)(F)F)nc2)CCn2cc([N+](=O)[O-])nc2O1 (configuration not stated)	33 µM	780 nM	66 µM	90 nM	1900 nM	> 64000 nM		7.3 µg/mL (≈ 20.4 µM)	42%	clearance at 24 h [10]: 4.1 mL/min/kg; inhibition at 10 µM (hERG (KCNH2)): 17%; C0 at 24 h [11]: 1600 ng/mL; AUC(0-t) at 24 h [12]: 41800 ng·h/mL; bioavailability at 24 h (in vivo [13]): 84%; Tmax at 24 h (in vivo [14]): 1 h; Cmax at 24 h (in vivo [15]): 11000 ng/mL; half-life at 24 h [16]: 1.5 h; Vd at 24 h [17]: 0.46 L/kg; AUC(0-t) at 24 h [18]: 4000 ng·h/mL
C[C@]1(COc2ccc(C(F)(F)F)nc2)CCn2cc([N+](=O)[O-])nc2O1		900 nM		440 nM	1300 nM	> 64000 nM		12 µg/mL (≈ 33.5 µM)	72%	clearance at 24 h [10]: 6.6 mL/min/kg; C0 at 24 h [11]: 1100 ng/mL; AUC(0-t) at 24 h [12]: 37200 ng·h/mL; bioavailability at 24 h (in vivo [13]): 59%; Tmax at 24 h (in vivo [14]): 2 h; Cmax at 24 h (in vivo [15]): 7300 ng/mL; half-life at 24 h [16]: 1.3 h; Vd at 24 h [17]: 0.91 L/kg; AUC(0-t) at 24 h [18]: 2520 ng·h/mL
O=[N+]([O-])c1cn2c(n1)OC(COc1ncc(C(F)(F)F)cn1)CC2 (configuration not stated)		3300 nM			> 64000 nM	> 64000 nM				
CC1(COc2ccc(F)nc2)CCn2cc([N+](=O)[O-])nc2O1 (configuration not stated)		4300 nM		600 nM	7100 nM	> 64000 nM	> 9			
O=[N+]([O-])c1cn2c(n1)OC(COc1ccc(C(F)(F)F)cn1)CC2 (configuration not stated)	20 µM	1000 nM	2.6 µM	80 nM	> 64000 nM	> 64000 nM		37 µg/mL (≈ 107 µM)	46%	solubility kinetic [19]: 32 µg/mL (≈ 93 µM); inhibition at 10 µM (hERG (KCNH2)): 4%
C[C@@]1(COc2ccc(C(F)(F)F)nc2)CCn2cc([N+](=O)[O-])nc2O1	> 128 µM	1800 nM	> 128 µM	740 nM	2300 nM	> 64000 nM		15 µg/mL (≈ 41.9 µM)	46%	clearance at 24 h [10]: 6 mL/min/kg; C0 at 24 h [11]: 1900 ng/mL; AUC(0-t) at 24 h [12]: 37200 ng·h/mL; bioavailability at 24 h (in vivo [13]): 54%; Tmax at 24 h (in vivo [14]): 2 h; Cmax at 24 h (in vivo [15]): 8000 ng/mL; half-life at 24 h [16]: 1.2 h; Vd at 24 h [17]: 0.75 L/kg; AUC(0-t) at 24 h [18]: 2760 ng·h/mL
CC1(COc2cc(C(F)(F)F)ccn2)CCn2cc([N+](=O)[O-])nc2O1 (configuration not stated)		860 nM			450 nM	> 64000 nM	> 142			
CC1(COc2ncc(C(F)(F)F)cn2)CCn2cc([N+](=O)[O-])nc2O1 (configuration not stated)		3100 nM			> 64000 nM	> 64000 nM		9.3 µg/mL (≈ 25.9 µM)	35%	remaining at 1 h, 1 µM [6]: 86%; remaining at 1 h, 1 µM [7]: 40%; remaining at 1 h, 1 µM [9]: 88%
CC1(COc2ccc(C(F)(F)F)cc2)CCn2cc([N+](=O)[O-])nc2O1 (configuration not stated)	4.1 µM	150 nM	0.8 µM	160 nM	160 nM	> 64000 nM	> 400			
CC1(COc2ccc(Oc3ccccc3)cc2)CCn2cc([N+](=O)[O-])nc2O1 (configuration not stated)	2.7 µM	250 nM	0.7 µM	170 nM	170 nM	> 64000 nM	> 376			
CC1(COc2ncc(C(F)(F)F)cc2F)CCn2cc([N+](=O)[O-])nc2O1 (configuration not stated)		730 nM			470 nM	> 64000 nM	> 136	13 µg/mL (≈ 34.6 µM)	56%	remaining at 1 h, 1 µM [6]: 44%; remaining at 1 h, 1 µM [7]: 0.4%; remaining at 1 h, 1 µM [9]: 64%
O=[N+]([O-])c1cn2c(n1)OC(COc1cc(C(F)(F)F)ccn1)CC2 (configuration not stated)		1000 nM			> 64000 nM	> 64000 nM				
CC1(COc2ccc(F)cn2)CCn2cc([N+](=O)[O-])nc2O1 (configuration not stated)	19 µM	3300 nM	2.3 µM	260 nM	1600 nM	> 64000 nM	> 40			
CC1(COc2cccc(C(F)(F)F)n2)CCn2cc([N+](=O)[O-])nc2O1 (configuration not stated)		440 nM			580 nM	> 64000 nM	> 110			
O=[N+]([O-])c1cn2c(n1)OC(COc1ccc(C(F)(F)F)nc1)CC2 (configuration not stated)		1100 nM		110 nM	> 64000 nM	> 64000 nM		29 µg/mL (≈ 84.2 µM)		clearance at 24 h [10]: 5.4 mL/min/kg; inhibition at 10 µM (hERG (KCNH2)): 4%; C0 at 24 h [11]: 2300 ng/mL; AUC(0-t) at 24 h [12]: 15100 ng·h/mL; bioavailability at 24 h (in vivo [13]): 39%; Tmax at 24 h (in vivo [14]): 0.25 h; Cmax at 24 h (in vivo [15]): 5800 ng/mL; half-life at 24 h [16]: 1.1 h; Vd at 24 h [17]: 0.47 L/kg; AUC(0-t) at 24 h [18]: 3100 ng·h/mL
CC1(COc2ccc(Cl)nc2)CCn2cc([N+](=O)[O-])nc2O1 (configuration not stated)		930 nM		860 nM	2800 nM	> 64000 nM	> 23			
CC1(COc2ncc(Cl)cn2)CCn2cc([N+](=O)[O-])nc2O1 (configuration not stated)		3700 nM		320 nM	> 64000 nM	> 64000 nM				
CC1(COc2ccccc2)CCn2cc([N+](=O)[O-])nc2O1 (configuration not stated)	8.1 µM	590 nM	1.3 µM	300 nM	520 nM	> 64000 nM	> 123			
